Source: article PMC5920526 (ACS catalysis, 2017)

Assays:
[1] = molecular target: VcSialidase (Vibrio cholerae serotype O1, UniProt P0C6E9); assay: biochemical
[2] = molecular target: SpNanA (Streptococcus pneumoniae, UniProt P62575); assay: biochemical; conditions: for inhibitory activity against SpNanA (in words): 0.1 mM inhibitor; for IC50: read-out: IC50 against SpNanA, Neu5Acα2–3GalβpNP as substrate
[3] = molecular target: BiNanH2 (Bifidobacterium longum subsp. infantis, UniProt A0ACD7UU12); assay: Sialidase inhibition, Neu5Acα2–3GalβpNP as substrate; assay type: biochemical; conditions: for inhibitory activity against BiNanH2 (in words): 0.1 mM inhibitor
[4] = molecular target: CpNanH (Clostridium perfringens, UniProt P10481); assay type: biochemical
[5] = molecular target: AuSialidase (Paenarthrobacter ureafaciens, UniProt Q5W7Q2); assay: Sialidase inhibition, Neu5Acα2–3GalβpNP as substrate; assay type: biochemical, Arthrobacter ureafaciens; conditions: for inhibitory activity against AuSialidase (in words): 0.1 mM inhibitor
[6] = molecular target: PmST1 (Pasteurella multocida, UniProt Q15KI8); assay type: biochemical; conditions: 0.1 mM inhibitor
[7] = system: SpNanC; assay: Sialidase inhibition, Neu5Acα2–3GalβpNP as substrate; assay type: biochemical, Streptococcus pneumoniae; conditions: 0.1 mM inhibitor
[8] = molecular target: human cytosolic sialidase hNEU2 (Homo sapiens, UniProt Q9Y3R4); assay: as above; assay type: biochemical; conditions: 0.1 mM inhibitor
[9] = system: CpNanI; assay type: biochemical, Clostridium perfringens; conditions: 0.1 mM inhibitor
[10] = molecular target: SpNanB (Streptococcus pneumoniae serotype 4, UniProt Q54727); assay: Sialidase inhibition, Neu5Acα2–3GalβpNP as substrate; assay type: biochemical; conditions: 0.1 mM inhibitor
[11] = system: SpNanC; assay: Substrate specificity of SpNanC with pNP-tagged α2–3-linked sialosides; assay type: biochemical, Streptococcus pneumoniae; conditions: for Percentage conversion: sialoside as substrate of SpNanC; for yield of cleavage by SpNanC: reactions using 3 μg of SpNanC

CC(=O)N[C@@H]1C(O)C=C(C(=O)O)OC1C[C@H](O)CO (some centres unmarked) [compound 10, Neu5Ac7deoxy2en]
inhibitory activity against VcSialidase (in words) [1]: not an effective inhibitor
inhibitory activity against SpNanA (in words) [2]: selective inhibitory activity
IC50 [2]: 10.7 ± 0.4 µM
inhibitory activity against BiNanH2 (in words) [3]: not an effective inhibitor
inhibitory activity against CpNanH (in words) [4]: not effective inhibitors
inhibitory activity against AuSialidase (in words) [5]: selective inhibitory activity
IC50 ([5]; read-out: IC50 against AuSialidase, Neu5Acα2–3GalβpNP as substrate): 17 ± 1 µM
inhibitory activity against PmST1 (in words) [6]: not effective inhibitors
inhibitory activity against SpNanC (in words) [7]: not effective inhibitors
inhibitory activity against hNEU2 (in words) [8]: but not hNEU2
inhibitory activity against CpNanI (in words) [9]: selective inhibitory activity
inhibitory activity against SpNanB (in words) [10]: not effective inhibitors

O=C(CO)NC1C(O)CC(OC2C(O)C(CO)OC(Oc3ccc([N+](=O)[O-])cc3)C2O)(C(=O)O)OC1C(O)C(O)CF (centres unmarked) [Neu5Gc9Fα2–3GalβpNP]
Percentage conversion [11]: 72.3 ± 2.6%

O=C(CO)N[C@H]1[C@H]([C@H](O)[C@H](O)CO)OC(C(=O)O)=C[C@@H]1O [compound 7, 2,3-dehydro-2-deoxy-N-glycolylneuraminic acid]
inhibition against VcSialidase [1]: more than 50%
inhibitory activity against CpNanH (in words) [4]: not effective inhibitors
inhibitory activity against PmST1 (in words) [6]: not effective inhibitors
inhibitory activity against SpNanC (in words) [7]: not effective inhibitors
inhibition against hNEU2 [8]: more than 50%
inhibitory activity against SpNanB (in words) [10]: not effective inhibitors

COC(C(O)CO)C1OC(OC2C(O)C(CO)OC(Oc3ccc([N+](=O)[O-])cc3)C2O)(C(=O)O)CC(O)C1NC(C)=O (centres unmarked) [Neu5Ac7OMeα2–3GalβpNP]
Percentage conversion [11]: 96.5 ± 1.7%

CC(=O)N[C@H]1[C@H]([C@H](O)[C@H](O)CF)O[C@@](O[C@H]2[C@@H](O)[C@@H](CO)O[C@@H](Oc3ccc([N+](=O)[O-])cc3)[C@@H]2O)(C(=O)O)C[C@@H]1O [Neu5Ac9Fα2–3GalβpNP]
Percentage conversion [11]: 75.6 ± 3.9%

COCC(O)C(O)C1OC(OC2C(O)C(CO)OC(Oc3ccc([N+](=O)[O-])cc3)C2O)(C(=O)O)CC(O)C1NC(=O)CO (centres unmarked) [Neu5Gc9OMeα2–3GalβpNP]
Percentage conversion [11]: 75.0 ± 1.9%

[N-]=[N+]=NC1C(O)CC(OC2C(O)C(CO)OC(Oc3ccc([N+](=O)[O-])cc3)C2O)(C(=O)O)OC1C(O)C(O)CO (stereo not drawn) [Kdn5N3α2–3GalβpNP]
Percentage conversion [11]: 0.32 ± 0.45%

COCC(=O)NC1C(O)CC(OC2C(O)C(CO)OC(Oc3ccc([N+](=O)[O-])cc3)C2O)(C(=O)O)OC1C(O)C(O)CO (centres unmarked) [Neu5AcOMeα2–3GalβpNP]
Percentage conversion [11]: 81.8 ± 1.7%

CC(=O)NC1C(O)CC(OC2C(O)C(CO)OC(Oc3ccc([N+](=O)[O-])cc3)C2O)(C(=O)O)OC1C(N=[N+]=[N-])C(O)CO (stereo not drawn) [Neu5Ac7N3α2–3GalβpNP]
Percentage conversion [11]: 65.9 ± 1.1%

COCC(O)C(O)C1OC(OC2C(O)C(CO)OC(Oc3ccc([N+](=O)[O-])cc3)C2O)(C(=O)O)CC(O)C1O (centres unmarked) [Kdn9OMeα2–3GalβpNP]
Percentage conversion [11]: 4.02 ± 1.36%

CC(=O)NC1C(O)CC(OC2C(O)C(CO)OC(Oc3ccc([N+](=O)[O-])cc3)C2O)(C(=O)O)OC1C(F)C(O)CO (centres unmarked) [Neu5Ac7Fα2–3GalβpNP]
Percentage conversion [11]: 91.0 ± 4.3%

COCC(O)C(O)C1OC(OC2C(O)C(CO)OC(Oc3ccc([N+](=O)[O-])cc3)C2O)(C(=O)O)CC(O)C1NC(C)=O (centres unmarked) [Neu5Ac9OMeα2–3GalβpNP]
Percentage conversion [11]: 88.5 ± 5.1%

O=C(O)[C@]1(O[C@H]2[C@@H](O)[C@@H](CO)O[C@@H](Oc3ccc([N+](=O)[O-])cc3)[C@@H]2O)C[C@H](O)[C@@H](O)[C@H]([C@H](F)[C@H](O)CO)O1 [Kdn7Fα2–3GalβpNP]
Percentage conversion [11]: 0.56 ± 0.11%

C[C@@H](O)[C@@H](O)[C@@H]1O[C@@](O[C@H]2[C@@H](O)[C@@H](CO)O[C@@H](Oc3ccc([N+](=O)[O-])cc3)[C@@H]2O)(C(=O)O)C[C@H](O)[C@H]1NC(=O)CO [Neu5Gc9deoxyα2–3GalβpNP]
Percentage conversion [11]: 85.5 ± 1.4%

CC(=O)N[C@H]1[C@H](C[C@H](O)CO)O[C@@](O[C@H]2[C@@H](O)[C@@H](CO)O[C@@H](Oc3ccc([N+](=O)[O-])cc3)[C@@H]2O)(C(=O)O)C[C@@H]1O [Neu5Ac7deoxyα2–3GalβpNP]
Percentage conversion [11]: 91.2 ± 1.8%

O=C(O)C1(OC2C(O)C(CO)OC(Oc3ccc([N+](=O)[O-])cc3)C2O)CC(O)CC(C(O)C(O)CO)O1 (centres unmarked) [Kdn5deoxyα2–3GalβpNP]
Percentage conversion [11]: 5.31 ± 0.23%

CC(=O)N[C@H]1[C@H]([C@H](O)[C@H](O)CO)OC(C(=O)O)=C[C@@H]1O [compound 6, 2,3-dehydro-2-deoxy-N-acetylneuraminic acid]
inhibition at 100 µM ([1]; read-out: inhibition against VcSialidase): > 50%
inhibition at 100 µM ([2]; read-out: inhibition against SpNanA): > 50%
inhibition at 100 µM ([3]; read-out: inhibition against BiNanH2): > 50%
inhibitory activity against CpNanH (in words) [4]: not effective inhibitors
inhibition at 100 µM ([5]; read-out: inhibition against AuSialidase): > 50%
inhibitory activity against PmST1 (in words) [6]: not effective inhibitors
inhibitory activity against SpNanC (in words) [7]: not effective inhibitors
inhibition against CpNanI [9]: more than 50%
inhibitory activity against SpNanB (in words) [10]: not effective inhibitors

O=C(O)C1(OC2C(O)C(CO)OC(Oc3ccc([N+](=O)[O-])cc3)C2O)CC(O)C(O)C(CC(O)CO)O1 (centres unmarked) [Kdn7deoxyα2–3GalβpNP]
yield of cleavage by SpNanC [11]: 10%
Percentage conversion [11]: 10.1 ± 0.0%

O=C(Cc1ccccc1)N[C@H]1[C@H]([C@H](O)[C@H](O)CO)OC(C(=O)O)=C[C@@H]1O [compound 15, Neu5PhAc2en]
inhibitory activity against VcSialidase (in words) [1]: not any bacterial sialidases tested
inhibitory activity against SpNanA (in words) [2]: not any bacterial sialidases tested
inhibitory activity against BiNanH2 (in words) [3]: not any bacterial sialidases tested
inhibitory activity against CpNanH (in words) [4]: not effective inhibitors
inhibitory activity against AuSialidase (in words) [5]: not any bacterial sialidases tested
inhibitory activity against PmST1 (in words) [6]: not effective inhibitors
inhibitory activity against SpNanC (in words) [7]: not effective inhibitors
inhibitory activity against hNEU2 (in words) [8]: retained inhibitory activity
inhibitory activity against CpNanI (in words) [9]: not any bacterial sialidases tested
inhibitory activity against SpNanB (in words) [10]: not effective inhibitors

O=C(O)C1(OC2C(O)C(CO)OC(Oc3ccc([N+](=O)[O-])cc3)C2O)CC(O)C(O)C(C(O)C(O)CF)O1 (centres unmarked) [Kdn9Fα2–3GalβpNP]
Percentage conversion [11]: 3.70 ± 1.14%

O=C(O)[C@@]1(O[C@H]2[C@@H](O)[C@@H](CO)O[C@@H](Oc3ccc([N+](=O)[O-])cc3)[C@@H]2O)C[C@H](O)[C@@H](F)[C@H]([C@H](O)[C@H](O)CO)O1 [Kdn5Fα2–3GalβpNP]
Percentage conversion [11]: 0.48 ± 0.00%

CO[C@H]1[C@H]([C@H](O)[C@H](O)CO)O[C@](O[C@H]2[C@@H](O)[C@@H](CO)O[C@@H](Oc3ccc([N+](=O)[O-])cc3)[C@@H]2O)(C(=O)O)C[C@@H]1O [Kdn5OMeα2–3GalβpNP]
Percentage conversion [11]: 1.53 ± 1.02%

O=C(CO)NC1C(O)CC(OC2C(O)C(CO)OC(Oc3ccc([N+](=O)[O-])cc3)C2O)(C(=O)O)OC1C(O)C(O)CO (centres unmarked) [Neu5Gcα2–3GalβpNP]
Percentage conversion [11]: 80.6 ± 6.7%

CC(=O)NC[C@@H](O)[C@@H](O)C1OC(C(=O)O)=CC(O)[C@H]1NC(C)=O (some centres unmarked) [compound 9, Neu5Ac9NAc2en]
inhibitory activity against VcSialidase (in words) [1]: lowered the inhibitory activity
IC50 [2]: 11 ± 0.2 µM
IC50 ([3]; read-out: IC50 against BiNanH2, Neu5Acα2–3GalβpNP as substrate): 33 ± 1 µM
inhibitory activity against CpNanH (in words) [4]: not effective inhibitors
inhibitory activity against AuSialidase (in words) [5]: lowered the inhibitory activity
inhibitory activity against PmST1 (in words) [6]: not effective inhibitors
inhibitory activity against SpNanC (in words) [7]: not effective inhibitors
inhibitory activity against hNEU2 (in words) [8]: lowered the inhibitory activity
inhibitory activity against SpNanB (in words) [10]: not effective inhibitors

O=C(O)[C@]1(O[C@H]2[C@@H](O)[C@@H](CO)O[C@@H](Oc3ccc([N+](=O)[O-])cc3)[C@@H]2O)C[C@H](O)[C@@H](O)[C@H]([C@H](O)[C@H](O)CO)O1 [Kdnα2–3GalβpNP]
Percentage conversion [11]: 4.50 ± 0.45%

[N-]=[N+]=NCC(O)C(O)C1OC(OC2C(O)C(CO)OC(Oc3ccc([N+](=O)[O-])cc3)C2O)(C(=O)O)CC(O)C1NC(=O)CO (stereo not drawn) [Neu5Gc9N3α2–3GalβpNP]
Percentage conversion [11]: 89.5 ± 3.5%

CO[C@@H]([C@@H]1O[C@](O[C@H]2[C@@H](O)[C@@H](CO)O[C@@H](Oc3ccc([N+](=O)[O-])cc3)[C@@H]2O)(C(=O)O)C[C@H](O)[C@H]1O)[C@H](O)CO [Kdn7OMeα2–3GalβpNP]
yield of cleavage by SpNanC [11]: 23%
Percentage conversion [11]: 23.4 ± 3.3%

O=C(CF)NC1C(O)CC(OC2C(O)C(CO)OC(Oc3ccc([N+](=O)[O-])cc3)C2O)(C(=O)O)OC1C(O)C(O)CO (centres unmarked) [Neu5AcFα2–3GalβpNP]
Percentage conversion [11]: 74.8 ± 3.2%

[N-]=[N+]=NC(C(O)CO)C1OC(OC2C(O)C(CO)OC(Oc3ccc([N+](=O)[O-])cc3)C2O)(C(=O)O)CC(O)C1O (stereo not drawn) [Kdn7N3α2–3GalβpNP]
Percentage conversion [11]: 4.50 ± 0.45%

[N-]=[N+]=NCC(=O)N[C@H]1[C@H]([C@H](O)[C@H](O)CO)O[C@@](O[C@H]2[C@@H](O)[C@@H](CO)O[C@@H](Oc3ccc([N+](=O)[O-])cc3)[C@@H]2O)(C(=O)O)C[C@@H]1O [Neu5AcN3α2–3GalβpNP]
Percentage conversion [11]: 87.9 ± 1.6%

CC(=O)NC1C(O)CC(OC2C(O)C(CO)OC(Oc3ccc([N+](=O)[O-])cc3)C2O)(C(=O)O)OC1C(O)C(C)O (centres unmarked) [Neu5Ac9deoxyα2–3GalβpNP]
Percentage conversion [11]: 93.5 ± 3.1%
